Data from paper PMC4916434, “Evaluation of the inhibition potential of plumbagin against cytochrome P450 using LC-MS/MS and cocktail approach” (Scientific Reports, 2016).

Columns and labels:
CYP1A2 = biological target: T1, CYP1A2 (Rattus norvegicus, UniProt P04799); experiment: CYP1A2 inhibition (phenacetin O-deethylation) in rat liver microsomes, cocktail LC-MS/MS; assay type: in vitro ADME
T1 construct: consisting of pooled HLMs (0.5 mg/ml) or RLMs (1 mg/ml) and an NADPH-regenerating system; from tissue; host or cells: rat liver microsomes prepared in house
T1 sequence (P04799 1-513): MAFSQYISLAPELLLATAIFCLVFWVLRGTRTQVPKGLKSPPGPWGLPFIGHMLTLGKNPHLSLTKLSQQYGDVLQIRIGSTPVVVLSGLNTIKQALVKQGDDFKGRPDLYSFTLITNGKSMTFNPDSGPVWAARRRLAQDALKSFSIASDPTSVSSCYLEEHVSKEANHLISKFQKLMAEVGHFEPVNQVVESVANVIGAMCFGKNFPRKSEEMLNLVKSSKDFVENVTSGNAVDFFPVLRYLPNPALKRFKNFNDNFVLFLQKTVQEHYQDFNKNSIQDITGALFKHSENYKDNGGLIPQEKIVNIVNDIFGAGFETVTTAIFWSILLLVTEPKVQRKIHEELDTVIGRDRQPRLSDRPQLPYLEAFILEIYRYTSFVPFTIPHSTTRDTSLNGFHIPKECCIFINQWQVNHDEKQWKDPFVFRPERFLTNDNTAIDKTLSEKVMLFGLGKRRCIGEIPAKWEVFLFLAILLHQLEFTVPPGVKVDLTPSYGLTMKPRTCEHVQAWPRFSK
Experimental: In this study, the rats were fasted overnight and killed by cervical dislocation before removal of the liver. The liver was excised, rinsed with ice-cold saline (0.9% NaCl w/v), weighed and homogenized in a […] Tris/KCl buffer (pH 7.4). Subsequently, the homogenate was centrifuged at 10,000 × g at 4 °C for 30 min. The supernatant was then centrifuged at 105,000 × g at 4 °C for 60 min. The pellet was reconstituted with […] Tris/KCl buffer (pH 7.4) and stored at −150 °C until use. The protein concentration of the liver microsomes was determined by a protein quantitative assay using bicinchoninic acid[22].
Microsomal incubation was carried out at 37 °C in a mixture of 200 μl in 0.05 M Tris/HCl buffer (pH 7.4) consisting of pooled HLMs (0.5 mg/ml) or RLMs (1 mg/ml) and an NADPH-regenerating system including MgCl2 (5 mM), G6P (10 mM), G6PDH (0.4 U/ml) and NADP (1 mM). Substrates were added into the incubation mixture and obtained the final concentrations (10 μM phenacetin for CYP1A2, 20 μM bupropion for CYP2B1/6, 20 μM tolbutamide for CYP2C9/11, 5 μM dextromethorphan for CYP2D1/6, 20 μM chlorzoxazone for CYP2E1 and 10 μM midazolam for CYP3A2/4), which were close to Km respectively. The proportion of organic solvent was not higher than 1% (v/v) in the incubation mixture. After pre-incubation for 5 min, the reaction was initiated by addition of NADP. Incubations were performed for 20 min, stopped by adding 200 μl ice-cold acetonitrile. And then 20 μl internal standard solution was added (3-acetamidophenol 2 μg/ml, chlorpropamide 2 μg/ml and mebendazole 2 μg/ml). The solution was mixed thoroughly for 3 min and centrifuged for 10 min at 16,000 × g at 4 °C. The supernatant (60 μl) was transferred to autosampler vials, and 2 μl was injected into LC-MS/MS system.
The IC50 (concentration of inhibitor to cause 50% inhibition of original enzyme activity) values were determined with the same incubation condition above. The specific concentrations of plumbagin were ranged from 0.1 μM to 50 μM. The IC50 values were calculated by plotting relative activities over the logarithm of plumbagin concentrations using GraphPad Prism 5.0 (GraphPad software Inc., CA, USA).
Cocktail probe substrates were then added and incubated for 20 min. Reactions were stopped with 200 μl ice-cold acetonitrile. The samples were treated according to the microsomal incubation method and then injected into LC-MS/MS for analysis.
Kinetic studies were performed for determining the types of inhibition on CYP by plumbagin. Pooled HLMs (0.5 mg/ml) or RLMs (1 mg/ml) with plumbagin (1 μM, 2 μM, 5 μM and 10 μM) were incubated in 0.05 M Tris/HCl buffer (pH 7.4) for 20 min at 37 °C. A series of concentrations for cocktail probe substrates were used: 2.5–20 μM phenacetin for CYP1A2; 5–40 μM bupropion for CYP2B1/6; 5–40 μM tolbutamide for CYP2C9/11; 1.25–10 μM dextromethorphan for CYP2D1/6; 5–40 μM chlorzoxazone for CYP2E1; 2.5–80 μM midazolam for CYP3A2; and 0.625–5 μM midazolam for CYP3A4. Enzyme kinetics as well as statistical analysis were performed using GraphPad Prism 5.0.
All data were presented as mean ± SD. The IC50 values were fitted by non-linear regression analysis using GraphPad Prism 5.0. The kinetic parameters were obtained by fitting velocity data to kinetic models (Michaelis-Menten) using GraphPad Prism 5.0. The Lineweaver-Burk Plot (the reciprocal of reaction velocities versus the reciprocal of substrates concentrations) was used to determine the quality of fit to a specific inhibition model. The inhibition constant (Ki) was obtained by a secondary plot using the slopes of the primary Lineweaver-Burk Plot (Km/Vmax versus inhibitor concentrations). αKi was obtained from a secondary plot using the y-intercepts of the Lineweaver-Burk plot (1/Vmax versus inhibitor concentrations). All results were analyzed in quadruplicate. One-way analysis of variance was used to estimate the significance of differences. […]

[1] = rat, in vivo, po, 100 mg/kg; cited from earlier work

CC1=CC(=O)c2c(O)cccc2C1=O [plumbagin, 5-hydroxy-2-methyl-1,4-naphthoquinone]
IC50 (CYP1A2): 2.65 µM
Ki (CYP1A2): 2.64 µM
α (CYP1A2; RLMs): 0.31
Type of inhibition (CYP1A2; RLMs, Lineweaver-Burk): mixed-type
Time-dependent inhibition (CYP1A2; RLMs, pre-incubation with NADPH 0, 5, 10, 20 min, plumbagin 0.2, 0.5, 1 μM): no time-dependent inhibition
αKi (CYP1A2; RLMs, secondary plot of y-intercepts, phenacetin 2.5-20 μM): 8.51 µM
Cmax [1]: 1860 nM
area under the curve (AUC) in the plasma [1]: 271.9 µg·min/mL
half-life (t1/2) in the plasma [1]: 17.13 h
peak concentration (Cmax) in the plasma [1]: 350 ng/mL
